The results in this text go back to patent publication US20180228743A1, “COMPOUNDS AND METHODS OF PROMOTING MYELINATION” (Case Western Reserve University, priority 2016, published 2018).

SMILES strings stand for the structures. Several values for one entry are separate records, joined by “and”; a condition that tells them apart may be missing. Identical values can stand only once. Like-named read-outs stand apart in the source and are kept apart here.

One data set concerns the target T1, rat CYP51 (Rattus norvegicus, UniProt Q64654).
T1 construct: purchased Cypex, Inc
T1 sequence (Q64654 1-503): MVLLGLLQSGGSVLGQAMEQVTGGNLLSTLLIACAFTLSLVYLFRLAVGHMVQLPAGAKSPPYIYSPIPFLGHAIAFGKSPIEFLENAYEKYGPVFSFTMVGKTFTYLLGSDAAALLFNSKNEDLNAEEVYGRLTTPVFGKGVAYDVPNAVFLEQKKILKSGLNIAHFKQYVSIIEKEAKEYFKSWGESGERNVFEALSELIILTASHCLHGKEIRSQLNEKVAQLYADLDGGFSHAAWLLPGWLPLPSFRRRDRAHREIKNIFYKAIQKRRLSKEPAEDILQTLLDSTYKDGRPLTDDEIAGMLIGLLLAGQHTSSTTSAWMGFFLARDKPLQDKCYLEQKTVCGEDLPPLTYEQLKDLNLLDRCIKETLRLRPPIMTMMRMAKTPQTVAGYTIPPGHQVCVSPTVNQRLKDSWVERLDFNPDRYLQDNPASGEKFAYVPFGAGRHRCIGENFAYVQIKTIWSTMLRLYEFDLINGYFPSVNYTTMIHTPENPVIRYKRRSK
Put plainly: CYP51 enzymatic assay (LC/MS quantitation of FF-MAS). In kind it is biochemical. The note with it: for IC50: lanosterol 50 μM, 30 minutes, read-out: IC50 for inhibition of rodent CYP51 in vitro.

The subject of data set [1] is EpiSC-derived OPCs. Put plainly: High-throughput screening of 3,000 bioactive small molecules for MBP+ oligodendrocyte formation from OPCs. In kind it is cell-based, mouse. To be noted: 2 μM, 72 h; for fold induction at 2 µM: Mus musculus, relative to DMSO controls of the same plate, read-out: fold-change in % MBP + oligodendrocytes; for % 0ligos: MBP+ oligodendrocytes. The source says: Plates were imaged on the Operetta High Content Imaging and Analysis system (PerkinElmer) and a set of 6 fields captured from each well resulting in an average of 1200 cells being scored per well. Analysis (PerkinElmer Harmony and Columbus software) began by identifying intact nuclei stained by DAPI; that is, those traced nuclei that were larger than 300 μm^2 in surface area. Each traced nucleus region was then expanded by 50% and cross-referenced with the […] (MBP) stain to identify oligodendrocyte nuclei, and from this the percentage of oligodendrocytes was calculated. In some experiments, the total process length of MBP+ oligodendrocytes was calculated as previously described.
EpiSC-derived OPCs were grown and expanded in poly-ornithine and laminin-coated flasks before harvesting for plating. Cells were dispensed in differentiation media supplemented with Noggin (R&D Systems; 100 ng/ml), Neurotrophin 3 (R&D Systems; 10 ng/ml), cAMP (Sigma; 50 μM), and IGF-1 (R&D Systems; 100 ng/ml)) using a Biotek EL406 Microplate Washer Dispenser (Biotek) equipped with 5 μL dispense cassette (Biotek), into poly-D-lysine/laminin (Sigma, L2020; 4 μg/ml)-coated sterile, 384-well, CellCarrier ultra plates (PerkinElmer), to a final density of 12,500 cells per well and allowed to attach for 45 min before addition of drug. A 3 mM stock of bioactive compound library in dimethylsulphoxide (DMSO) were prepared in an Abgene storage 384-well plate (ThermoFisher Scientific; AB1055). These were added to assay plates using a 50 nL solid pin tool attached to Janus automated workstation (Perkin Elmer), resulting in a final screening concentration of 2 μM. Cells were incubated at 37° C. for 1 hour and then T3 (Sigma; 40 ng/ml) was added to all wells except negative controls, to which FGF (20 ng/ml) was added instead. Negative controls and T3-alone were included in each assay plate. After incubation at 37° C. for 72 h, cells were fixed, washed and stained similar to 96-well OPC assay protocol, although all the washing steps were performed using a Biotek EL406 Microplate Washer Dispenser (Biotek) equipped with a 96-well aspiration manifold. Cells were stained with DAPI (Sigma; 1 μg/ml) and MBP antibody (Abcam, ab7349; 1:100). Plates were imaged on the Operetta High Content Imaging and Analysis system (PerkinElmer) and a set of 4 fields captured from each well resulting in an average of 700 cells being scored per well. Analysis was performed as in High-Content Imaging and Analysis, above. All plates for the primary screen were processed and analyzed simultaneously to minimize variability. Molecules causing more than 20% reduction in nuclear count relative to DMSO control wells were removed from consideration, and hits were called on the basis of largest fold-increase in percentage of MBP+ oligodendrocytes relative to DMSO controls within the same plate.

Data set [2] relates to EpiSC-derived OPCs. Put plainly: In vitro phenotypic screening of OPCs (MBP+ oligodendrocytes at 72 h). In kind it is cell-based, mouse.
The test system of the next data set is OPCs. Put plainly: GC/MS-based sterol profiling in OPCs. The note with it: for sterol levels / sterol intermediate accumulation in OPCs: 24 h treatment (siRNA 96 h). In kind it is cell-based, mouse.
A further data set addresses T2, EBP (Mus musculus, UniProt P70245).
T2 construct: active EBP was obtained from mouse microsomes; from tissue
T2 sequence (P70245 1-230): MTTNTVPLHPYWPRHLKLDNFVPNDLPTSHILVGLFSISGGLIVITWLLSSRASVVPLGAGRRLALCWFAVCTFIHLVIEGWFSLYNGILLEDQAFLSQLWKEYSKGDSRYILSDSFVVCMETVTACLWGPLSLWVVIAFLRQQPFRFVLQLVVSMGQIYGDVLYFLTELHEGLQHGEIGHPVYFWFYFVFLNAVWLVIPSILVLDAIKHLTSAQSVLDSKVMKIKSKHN
Put plainly: EBP enzymatic assay (GC/MS). In kind it is biochemical. To be noted: 10 μM, zymostenol 25 μM.

The test system of data set [3] is EpiSC-derived OPCs. Put plainly: Oligodendrocyte formation on electrospun microfibers. The note with it: 14 days. The format is cell-based, mouse. The procedure: A 12-well plate containing Mimetex aligned scaffold (microfiber plate, AMSBIO, AMS.TECL-006-1X, Electrospun poly-L-lactide Scaffold, […] cell crown inserts) was prepared as previously described. Briefly, inserts were sterilized with 70% ethanol and washed with PBS before being coated with polyornithine and laminin. After laminin coating, 100,000 cells/mL of EpiSC-derived OPCs were plated in differentiation medium. After 24 h the media was replaced with fresh media containing small molecule treatments. Every 48 h the media was replaced with fresh compound containing media for a total of 14 days. Plates were fixed with 4% PFA, permeabilized with 0.1% Triton X-100, and blocked with 10% donkey serum (v/v) in PBS for 60 min. Plates were stained for MBP (Abcam, ab7349; 1:100) and DAPI staining (Sigma; 5 μg/ml). After staining, the inserts were moved into new 12-well plate and covered with 2 mL of PBS before imaging in Operetta high content Imaging and analysis system. […] Analysis (PerkinElmer Harmony and Columbus software) identified intact nuclei stained by DAPI and calculated the MBP signal intensity per cell per well. Microfiber insert tracking images were taken using a Leica DMi8 with a 20× Dry/NA 0.40 objective. Microfiber plate inserts were mounted using Flouromount-G (SouthernBiotech) and allowed to partially harden before coverslips were added and the insert ring was removed. Confocal images were obtained on a Leica SP8 confocal scanning microscope, with 40× oil/NA 1.30 objective. Confocal stacks of 0.336 μm z-steps were taken at 1024×1024. Each fluorophore was excited sequentially and all contrast and brightness changes were applied consistently between images.

Another data set has as its system T47D cells. The note with it: 5 days.

Protocol for rat CYP51: Finally, 15 μl of each reaction/isopropanol mixture was injected onto a SCIEX Triple Quad 6500 LC-MS/MS system using an APCI ion source in positive ion mode with a Shimadzu UFLC-20AD HPLC and a Phenomenex

On to `CC(=O)N1CCN(c2ccc(OC[C@@H]3CO[C@](Cn4ccnc4)(c4ccc(Cl)cc4Cl)O3)cc2)CC1` (stereo in doubt) [R-trans-Ketoconazole], for which the “inhibition of mammalian CYP51 in vitro” value on rat CYP51 is “strikingly less effective at inhibiting mammalian CYP51”.
`CC(=O)N1CCN(c2ccc(OC[C@H]3CO[C@@](Cn4ccnc4)(c4ccc(Cl)cc4Cl)O3)cc2)CC1` (stereo in doubt) [S-trans-Ketoconazole]: the “inhibition of mammalian CYP51 in vitro” value at rat CYP51 was “strikingly less effective at inhibiting mammalian CYP51”.
A word on the IC50: it is the concentration that gives 50% inhibition. `Clc1ccccc1C(c1ccccc1)(c1ccccc1)n1ccnc1` [Clotrimazole]: in the data set with EpiSC-derived OPCs [1], the “cell viability (% relative to DMS0)” value was 112.83% and 122.50%; the fold induction at 2 µM amounted to 3.85. At rat CYP51, the half-inhibitory concentration (IC50) lay in the range of 300 to 700 nM.
In the case of `Cc1cc(C)c(CNC(=O)c2cc(-c3ccc(CN4CCOCC4)cc3)cc3c2cnn3C2CCCC2)c(=O)[nH]1` [EPZ005687], in the data set on EpiSC-derived OPCs [1], the “cell viability (% relative to DMS0)” value was 91.36%, the “% 0ligos” value is 50.00% and the fold induction at 2 µM turned out to be 5.9. Besides, the “formation of MBP+ oligodendrocytes from OPCs” value (shortened to “formation … from OPCs”) in the data set with EpiSC-derived OPCs [2] (72 h) was “enhanced oligodendrocyte formation in both our mouse epiblast stem cell-derived OPCs and mouse primary OPCs”. Further, the “sterol levels / sterol intermediate accumulation in OPCs” value with OPCs was “uniquely caused accumulation of zymosterol and zymostenol in OPCs”. Moreover, at EBP, the “inhibition of EBP enzymatic activity” value was “directly inhibiting EBP enzymatic activity”.
On to `OCCOCCN1CCN(C(c2ccccc2)c2ccc(Cl)cc2)CC1` (stereo not drawn) [Hydroxyzine 2HCl], for which, in the data set with EpiSC-derived OPCs [1], the “cell viability (% relative to DMS0)” value is 134.19%, the “% 0ligos” value was determined as 40.63% and the fold induction at 2 µM amounted to 4.8. For the same molecule, on EBP, the “inhibition of EBP enzymatic activity” value is on record as “directly inhibiting EBP enzymatic activity”.
`CC(=O)N1CCN(c2ccc(OCC3COC(Cn4ccnc4)(c4ccc(Cl)cc4Cl)O3)cc2)CC1` (stereo not drawn) [Ketoconazole]: the “% 0ligos” value in the data set with EpiSC-derived OPCs [1] stood at 52.77%. Further, the IC50 on rat CYP51 was 300 to 700 nM. In addition, the “MBP+ oligodendrocyte tracking along and wrapping of microfibers” value with EpiSC-derived OPCs [3] was “significantly enhanced MBP+ oligodendrocyte tracking along and wrapping of the microfibers”.
Regarding `COc1ccc(S(=O)(=O)N2CCC(N3CCC(C)CC3)CC2)cc1` [TASIN-1], the “formation … from OPCs” value with EpiSC-derived OPCs [2] (72 h) is given as “enhanced formation of MBP+ oligodendrocytes”. For the same molecule, on EBP, the “inhibition of EBP enzymatic activity” value is “clear inhibition”. In addition, in the data set with EpiSC-derived OPCs [3], the “MBP+ oligodendrocyte tracking along and wrapping of microfibers” value was “significantly enhanced MBP+ oligodendrocyte tracking along and wrapping of the microfibers”.
Regarding `CCC(C)(C)c1ccc(CC(C)CN2C[C@@H](C)O[C@@H](C)C2)cc1` (stereo partly drawn) [amorolfine, Amorolfine], in the data set with EpiSC-derived OPCs [2] (72 h), the “formation … from OPCs” value was “enhanced formation of MBP+ oligodendrocytes”. Moreover, the “MBP+ oligodendrocyte tracking along and wrapping of microfibers” value with EpiSC-derived OPCs [3] is “significantly enhanced MBP+ oligodendrocyte tracking along and wrapping of the microfibers”.
With `CN1[C@@H]2CC[C@H]1C[C@@H](OC(c1ccccc1)c1ccccc1)C2` [benztropine, Benztropine], the “oligodendrocyte formation in combination with ketoconazole” value with EpiSC-derived OPCs [2] (72 h, ketoconazole 2.5 μM (maximally effective dose)) is listed as “did not enhance differentiation above levels seen for ketoconazole alone”. In addition, in the data set with OPCs, the “sterol levels / sterol intermediate accumulation in OPCs” value is “induced accumulation of zymostenol and zymosterol and decreased basal sterol levels”. For the same molecule, the “inhibition of EBP enzymatic activity” value against EBP was “clear inhibition”.
On to `OC(Cn1cncn1)(Cn1cncn1)c1ccc(F)cc1F` [fluconazole, Fluconazole], for which, on rat CYP51, the “inhibition of mammalian CYP51 in vitro” value is “did not inhibit mammalian CYP51 in vitro”.
As to `OCCOc1ccc(/C(=C(/CCCl)c2ccccc2)c2ccccc2)cc1` [ospemifene, Ospemifene], the “formation … from OPCs” value in the data set on EpiSC-derived OPCs [2] was “did not enhance differentiation to MBP+ oligodendrocytes”. In addition, in the data set with OPCs, the “enzyme inhibited in OPCs as indicated by sterol profile” value was “did not inhibit EBP in OPCs”. In addition, the “antiestrogen effect on estrogen-dependent growth” value with T47D cells is recorded as “comparable antiestrogen effects”.
Turning to `CN(C)CCOc1ccc(/C(=C(/CCCl)c2ccccc2)c2ccccc2)cc1` [toremifene, Toremifene], the “formation … from OPCs” value in the data set with EpiSC-derived OPCs [2] (72 h) is recorded as “enhanced MBP+ oligodendrocyte generation over a wide dose range”. Further, the “enzyme inhibited in OPCs as indicated by sterol profile” value in the data set with OPCs (24 h) is reported as “inhibited EBP”. The “antiestrogen effect on estrogen-dependent growth” value in the data set with T47D cells was “comparable antiestrogen effects”.
